{
  "source": "patent US7700559B2",
  "about": "“Gonadotropin releasing hormone analogues conjugates with steroid hormones” (Medical Research Council, priority 2003, dated 2010)",
  "key": {"male marmosets": {"tested_on": "male marmosets", "assay": "In vivo male marmoset study, plasma testosterone after s.c. injection", "design": "species or system Callithrix jacchus", "settings": "0.5 mg s.c.", "protocol": "(§1) In Vivo Studies in the Male and Female Common Marmoset (Callithrix Jacchus)\nMale marmoset studies: To determine duration of action at GnRH receptor, 0.5 mg GnRH antagonist-steroid conjugate was administered as subcutaneous bolus in 1 ml saline at two sites in six adult male marmosets. Testosterone concentrations were monitored by RIA. GnRH antagonist (0.5 mg) was administered as a subcutaneous bolus in 1 ml saline at two sites in three marmosets. Testosterone concentrations were monitored. One 300 μl blood sample was withdrawn on the day prior to GnRH antagonist injection and at 0 hours, 4 hours and 8 hours on the day of injection and on the following 3 days. Three further samples were taken during the subsequent week."}, "[1]": {"biological_target": "progesterone binding globulin (PBG)", "assay": "Plasma protein binding assay, competition with [3H]progesterone in pregnant guinea pig plasma", "settings": "for IC50: read-out: IC50, inhibition of [3H]progesterone binding to PBG", "protocol": "(§2) Plasma Protein Binding Assay\n(§3) Plasma protein binding was determined by the competitive binding of steroid conjugates, in the presence of [1,2,6,7-^3H]progesterone or [^3H]cortisol, to pregnant guinea pig plasma or human pregnant serum respectively. 20 μl serum was diluted with 2 ml dextran-coated charcoal solution (0.25 g dextran T-70, 2.5 g charcoal decolorizing powder, activated acid washed [Merck Ltd., Lutterworth, Leicestershire] in 500 ml PBS) and incubated at room temperature. After 30 mins the suspension was centrifuged at 3000×g for 10 minutes, the supernatant was removed and the pellet was discarded. 100 μl of diluted serum was aliquoted into centrifuge tubes, followed by 1 pmol[^3H]steroid/100 μl PBS. 100 μl PBS (total binding) or 200 pmol/100 μl unlabelled competing ligand ([…]) was added to diluted serum in duplicate. Tubes were vortexed and incubated at room temperature for 1 hour, then for an additional 15 minutes on ice. A further 750 μl dextran-coated charcoal suspension was added and incubated for 10 minutes on ice, followed by centrifugation at 4° C. for 5 minutes. The supernatant fluid was counted."}, "[2]": {"tested_on": "cycling adult female marmosets", "assay": "In vivo female marmoset study, inhibition of corpus luteum function", "design": "species or system Callithrix jacchus", "settings": "one animal; for duration of the luteal phase after treatment: mid-luteal phase", "protocol": "as §1\nFemale marmoset studies: To identify the effective dose required to inhibit corpus luteum function, 1.0, 0.5 or 0.25 mg of GnRH antagonist-steroid conjugate was administered as subcutaneous bolus in 1 ml saline at two sites during mid-luteal phase. Progesterone concentrations were monitored by RIA. One 300 μl blood sample was withdrawn on the day prior to GnRH antagonist injection. Further blood samples of equal size were withdrawn at 0, 4 and 8 hours on day of injection and on the following 3 days. Blood samples were taken three times per week until the next ovulation."}, "[3]": {"biological_target": "T1, cortisol binding globulin (CBG) (Homo sapiens, UniProt P08185)", "T1 construct": "from tissue; host or cells: human pregnant serum (charcoal-stripped, diluted)", "T1 sequence (P08185 23-405)": "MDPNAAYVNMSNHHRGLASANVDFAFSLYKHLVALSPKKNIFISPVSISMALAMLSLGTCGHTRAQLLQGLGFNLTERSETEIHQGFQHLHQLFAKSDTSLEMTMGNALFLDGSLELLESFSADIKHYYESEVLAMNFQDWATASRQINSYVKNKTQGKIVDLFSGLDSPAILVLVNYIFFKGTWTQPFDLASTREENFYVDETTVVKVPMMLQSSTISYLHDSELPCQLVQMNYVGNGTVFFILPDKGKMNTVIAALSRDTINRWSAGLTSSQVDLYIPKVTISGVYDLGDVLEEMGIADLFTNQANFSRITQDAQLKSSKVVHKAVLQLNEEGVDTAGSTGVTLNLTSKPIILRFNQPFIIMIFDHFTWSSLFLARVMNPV", "assay": "Plasma protein binding assay, competition with [3H]cortisol in human pregnant serum", "settings": "data not shown, read-out: IC50, prevention of [3H]cortisol binding", "protocol": "as §2, §3"}, "[4]": {"assay": "In vivo male rabbit study, disappearance of iodinated analogue from whole blood", "settings": "rabbit, in vivo, iv", "protocol": "In Vivo Studies in the Male Rabbit\nTo determine biological half-life of GnRH agonist-progesterone conjugates, 0.5 ml saline containing approximately 10,000,000 cpm of iodinated [D-Ala^6]GnRH or [D-Lys^6]GnRH-progesterone conjugate was injected as an i.v. bolus into the ear vein of a male rabbit. Rabbits were sedated with 0.4 ml Aceprom 10 (Milborrow Animal Health, Republic of South Africa) injected intramuscularly 3-4 minutes before start of experiment. A repeat injection was carried out after 2 hours. 1 ml blood samples were collected in heparinized tubes from an indwelling cannula placed in a vein of the contralateral ear. Whole blood was counted directly to determine disappearance from circulation. All experiments were carried out in accordance with Republic of South Africa regulations."}},
  "note": "Read-outs that look alike come from different tables or passages of the source. Non-standard residues stand in square brackets, D forms with d. Residues, ends and D or L forms follow the SMILES beside them. *: point of attachment. X1 = C[C@]12CC[C@H]3[C@@H](CCC4=CC(=O)CC[C@@]43C)[C@@H]1CC[C@@H]2C(=O)COC(=O)CCC(=O)*; dPhe(4-Cl) = N[C@H](Cc1ccc(Cl)cc1)C(=O)O; dPhe(4-F) = N[C@H](Cc1ccc(F)cc1)C(=O)O; d2Nal = N[C@H](Cc1ccc2ccccc2c1)C(=O)O; d3Pal = N[C@H](Cc1cccnc1)C(=O)O; ΔPro = O=C(O)[C@@H]1C=CCN1",
  "data": [
    {"molecule": "CC(=O)N[C@H](Cc1ccc2ccccc2c1)C(=O)N[C@H](Cc1ccc(Cl)cc1)C(=O)N[C@H](Cc1cccnc1)C(=O)N[C@@H](CO)C(=O)N[C@@H](CCCNC(=N)N)C(=O)N[C@H](CCCCN)C(=O)N[C@@H](CC(C)C)C(=O)N[C@@H](CCCNC(=N)N)C(=O)N1CCC[C@H]1C(=O)N[C@H](C)C(N)=O", "note": "[antagonist A, [AcD-Nal^1,D-Cpa^2,D-Pal^3,Arg^5,D-Lys^6,D-Ala^10]GnRH, reference compound] (Ac-[d2Nal][dPhe(4-Cl)][d3Pal]SR[dK]LRP[dA]-NH2)", "values": [
      {"measurement": "effect on plasma testosterone concentrations", "setting": "male marmosets", "value": "rapid decline in plasma testosterone concentrations"},
      {"measurement": "time by which testosterone had increased again", "setting": "male marmosets", "value": "≤ 24", "unit": "h"},
      {"measurement": "time to which reduction in testosterone concentration was maintained post-injection", "setting": "male marmosets", "value": 8, "unit": "h"}
    ]},
    {"molecule": "CC(=O)N[C@H](Cc1ccc2ccccc2c1)C(=O)N[C@H](Cc1ccc(Cl)cc1)C(=O)N[C@H](Cc1cccnc1)C(=O)N[C@@H](CO)C(=O)N[C@@H](CCCNC(=N)N)C(=O)N[C@H](CCCCNC(=O)CCC(=O)OCC(=O)[C@H]1CC[C@H]2[C@@H]3CCC4=CC(=O)CC[C@]4(C)[C@H]3CC[C@]12C)C(=O)N[C@@H](CC(C)C)C(=O)N[C@@H](CCCNC(=N)N)C(=O)N1CCC[C@H]1C(=O)N[C@H](C)C(N)=O", "note": "[antagonist A-progesterone, AcD-Nal-D-Cpa-D-Pal-Ser-Arg-D-Lys-Leu-Arg-Pro-D-Ala-NH2 conjugated to 21-hydroxyprogesterone 21-succinate at the ε amine of D-Lys at position 6] (Ac-[d2Nal][dPhe(4-Cl)][d3Pal]SR[dK](X1)LRP[dA]-NH2)", "values": [
      {"measurement": "IC50", "setting": "[1]; listed as antagonist A-progesterone conjugate", "value": 1000, "unit": "nM"},
      {"measurement": "IC50", "setting": "[1]; listed as antagonist peptide A-progesterone", "value": 850, "unit": "nM"},
      {"measurement": "day by which testosterone had recovered", "setting": "male marmosets", "value": "≤ 6", "unit": "days"},
      {"measurement": "effect on plasma testosterone concentrations", "setting": "male marmosets", "value": "rapidly decreased testosterone concentrations"},
      {"measurement": "time to which reduction in testosterone concentration was maintained post-injection", "setting": "male marmosets", "value": "at least 72 hours"},
      {"measurement": "luteal regression and subsequent ovulation", "setting": "[2]; 0.25 mg s.c.", "value": "full luteal regression and subsequent ovulation did not occur"},
      {"measurement": "plasma progesterone concentrations", "setting": "[2]; 0.25 mg s.c.", "value": "transient reduction in plasma progesterone concentrations"},
      {"measurement": "duration of the luteal phase after treatment", "setting": "[2]; 0.5 mg s.c., before 21.0±1.2 days", "value": 11, "unit": "days"},
      {"measurement": "duration of the luteal phase after treatment", "setting": "[2]; 1.0 mg s.c., before 24.8±2.2 days", "value": 8, "unit": "days"}
    ]},
    {"molecule": "CC(=O)N1CC=C[C@H]1C(=O)N[C@H](Cc1ccc(F)cc1)C(=O)N[C@H](Cc1c[nH]c2ccccc12)C(=O)N[C@@H](CO)C(=O)N[C@@H](Cc1ccc(O)cc1)C(=O)N[C@H](CCCCNC(=O)CCC(=O)OCC(=O)[C@H]1CC[C@H]2[C@@H]3CCC4=CC(=O)CC[C@]4(C)[C@H]3CC[C@]12C)C(=O)N[C@@H](CC(C)C)C(=O)N[C@@H](CCCNC(=N)N)C(=O)N1CCC[C@H]1C(=O)NCC(N)=O", "note": "[antagonist B-progesterone, Ac-ΔPro-D-Fpa-D-Trp-Ser-Tyr-D-Lys-Leu-Arg-Pro-Gly-NH2 conjugated to 21-hydroxyprogesterone 21-succinate at the ε amine of D-Lys at position 6] (Ac-[ΔPro][dPhe(4-F)][dW]SY[dK](X1)LRPG-NH2)", "values": [
      {"measurement": "IC50", "setting": "[1]; listed as antagonist B-progesterone conjugate", "value": 530, "unit": "nM"},
      {"measurement": "IC50", "setting": "[1]; listed as antagonist peptide B-progesterone", "value": 450, "unit": "nM"}
    ]},
    {"molecule": "C[C@]12CCC(=O)C=C1CC[C@@H]1[C@@H]2[C@@H](O)C[C@@]2(C)[C@H]1CC[C@]2(O)C(=O)CO", "note": "[cortisol, reference compound]", "values": [
      {"measurement": "inhibition of specific [3H]progesterone binding (specificity)", "setting": "[1]", "value": "failure of cortisol to inhibit specific [^3H]progesterone binding"},
      {"measurement": "IC50", "setting": "[3]", "value": 6.7, "unit": "nM"}
    ]},
    {"molecule": "CC(=O)[C@H]1CC[C@H]2[C@@H]3CCC4=CC(=O)CC[C@]4(C)[C@H]3CC[C@]12C", "note": "[progesterone, reference compound]", "values": [
      {"measurement": "IC50", "setting": "[1]", "value": 96, "unit": "nM"},
      {"measurement": "IC50", "setting": "[3]", "value": 73, "unit": "nM"}
    ]},
    {"molecule": "[D-Ala^6]GnRH [reference compound]", "values": [
      {"measurement": "second phase half-life (metabolism and renal clearance)", "setting": "[4]", "value": "21 ± 3", "unit": "min"}
    ]}
  ]
}
